In article PMC8471380 (Molecules, 2021):
Counter-ions that a name gives are not always drawn.

What was measured:
[1] = target: T1, human erythrocyte AChE (Homo sapiens, UniProt P22303); assay: biochemical; settings: mean ± SEM, n = 3; for inhibition at 20 µM: read-out: % of inhibition of AChE with 20 µM concentration of the compound, 20 µM compound; for IC50: 5 min incubation
T1 construct: commercial human erythrocyte AChE; purchased Sigma; host or cells: human erythrocytes

[2] = target: T2, porcine liver CES (Sus scrofa, UniProt Q29550); assay: CES inhibition, 4-nitrophenyl acetate hydrolysis; format: biochemical; settings: for inhibition at 20 µM: read-out: % of inhibition of CES with 20 µM concentration of the compound
T2 sequence (Q29550 19-566): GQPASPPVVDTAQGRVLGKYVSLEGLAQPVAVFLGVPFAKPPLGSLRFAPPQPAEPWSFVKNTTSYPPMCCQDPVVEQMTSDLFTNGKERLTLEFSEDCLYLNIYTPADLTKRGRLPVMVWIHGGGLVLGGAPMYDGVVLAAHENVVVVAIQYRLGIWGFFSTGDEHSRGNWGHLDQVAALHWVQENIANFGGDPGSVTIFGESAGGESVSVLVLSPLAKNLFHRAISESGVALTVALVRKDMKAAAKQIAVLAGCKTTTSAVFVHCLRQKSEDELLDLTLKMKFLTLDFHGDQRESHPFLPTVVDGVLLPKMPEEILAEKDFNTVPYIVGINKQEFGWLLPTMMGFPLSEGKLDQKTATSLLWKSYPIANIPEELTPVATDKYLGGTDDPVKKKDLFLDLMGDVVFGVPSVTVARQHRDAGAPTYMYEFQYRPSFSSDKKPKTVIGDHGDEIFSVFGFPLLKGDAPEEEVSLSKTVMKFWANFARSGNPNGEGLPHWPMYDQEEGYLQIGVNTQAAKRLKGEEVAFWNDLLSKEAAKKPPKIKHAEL
Description: (§1) Reagents blanks consisted of reaction mixtures without substrates. […] Final enzyme and substrate concentrations were 0.02 unit/mL and 1 mM, respectively. Assays were carried out with a blank containing all constituents except porcine CES to assess non-enzymatic hydrolysis. The measurements were performed on a FLUOstar OPTIMA multifunctional microplate reader (BMG LABTECH, Ortenberg, Germany). The compounds were dissolved in DMSO. The incubation mixture contained 2% (v/v) of the solvent. […] The sample of the appropriate enzyme was incubated with the test compound for 5 min, and then the residual enzymatic activity was determined. Each experiment was performed in triplicate. […] Each experiment was performed in triplicate. The IC50 values were calculated with Origin 6.1 software.

[3] = tested on: isolated rat liver mitochondria; assay: Ca2+-induced mitochondrial swelling (MPT pore opening); format: biochemical; settings: 30 µM compound; 12.5 µM Ca2+; 10 mM glutamate, 2 mM malate, 10 mM succinate; percentage relative to the reference compound
Description: Experiments were performed using outbred male rats weighing 200–220 g. The animals were housed under standard vivarium conditions in a normal day/night cycle and had ad libitum access to water and food. The procedure of rat euthanasia using carbon dioxide (CO2) inhalation for mitochondria preparation is in compliance with the Guidelines for Animal Experiments, which were approved by the local bioethics committee of the IPAC RAS.
Rat liver mitochondria were isolated by conventional differential centrifugation. Membrane potential of rat liver mitochondria was measured using the potential-sensitive fluorescent probe Safranine A on a Victor 3 multilabel plate reader (Perkin Elmer, Waltham, MA, USA). The fluorescence was recorded at λex = 485 nm and λem = 590 nm. Mitochondrial swelling was measured by spectrophotometry in 96-well clear bottom plates on a Victor 3 microplate reader (Perkin Elmer, Waltham, MA, USA) at 620 nm; CaCl2 was added to induce mitochondrial swelling (MPT opening).

[4] = target: T3, equine serum BChE (Equus caballus, UniProt P81908); assay: biochemical; settings: mean ± SEM, n = 3; for IC50: 5 min incubation
T3 construct: equine serum BChE; purchased Sigma; host or cells: equine serum
T3 sequence (P81908 whole entry): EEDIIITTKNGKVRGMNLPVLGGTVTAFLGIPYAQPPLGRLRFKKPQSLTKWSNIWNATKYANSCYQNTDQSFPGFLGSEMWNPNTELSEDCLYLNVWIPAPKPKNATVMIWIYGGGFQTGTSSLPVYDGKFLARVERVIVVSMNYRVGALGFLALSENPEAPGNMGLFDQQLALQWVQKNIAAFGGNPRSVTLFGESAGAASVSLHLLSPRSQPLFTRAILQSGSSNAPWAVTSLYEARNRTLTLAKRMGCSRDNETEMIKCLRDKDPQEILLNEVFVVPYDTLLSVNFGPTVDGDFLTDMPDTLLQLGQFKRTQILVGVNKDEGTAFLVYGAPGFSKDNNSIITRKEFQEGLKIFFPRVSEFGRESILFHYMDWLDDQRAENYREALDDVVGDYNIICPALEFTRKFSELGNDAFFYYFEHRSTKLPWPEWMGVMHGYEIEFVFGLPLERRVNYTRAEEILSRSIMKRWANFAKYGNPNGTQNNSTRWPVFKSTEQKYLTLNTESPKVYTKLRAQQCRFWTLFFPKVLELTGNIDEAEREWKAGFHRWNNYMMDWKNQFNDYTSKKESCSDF
Description: as §1

[5] = tested on: tubulin and microtubule-associated proteins (Tb+MAP); assay: GTP-dependent Tb+MAP polymerization; format: biochemical, mouse; settings: 100 µM compound; for Rate of Tb+MAP Polymerization (dA355/dt): 0.1 mM GTP, 37 °C
Excerpt: A crude fraction of tubulin and microtubule-associated proteins (Tb+MAP) was isolated from mouse brain tissue by a polymerization–depolymerization method. The procedure of mouse euthanasia using cervical dislocation for Tb+MAP preparation is in compliance with the Guidelines for Animal Experiments, which were approved by the local bioethics committee of the IPAC RAS. The freshly dissected brain was immediately placed on ice, cleared of meninges and surface blood vessels, and washed with cold buffer A (50 mM Tris-HCl, pH 6.9 at 4 °C, 2 mM EGTA). The extracted brain tissue was homogenized under ice cooling in the same buffer using a Potter S homogenizer (Sartorius). The resulting homogenate was centrifuged at 10,000× g for 30 min on an Avanti 25 centrifuge (Beckman) using a JA-14 rotor for the precipitation of non-ruptured cells. The precipitate was discarded, and the supernatant was again centrifuged at 100,000× g for 60 min at 4 °C on an Optima MAX XP centrifuge (Beckman) using a MLA-50 rotor. The precipitate was again discarded. The protein concentration in the supernatant was determined by the Bradford assay using the Bio-Rad Protein Assay kit (Bio-Rad, Hercules, CA, USA) according to manufacturer’s instructions. The resulting supernatant was a cytosolic fraction enriched in microtubular proteins (Tb and MAP).
The Tb+MAP preparation was centrifuged at 5000× g for 10 min at 4 °C immediately before polymerization in order to remove denatured and aggregated protein molecules by precipitation. The Tb+MAP polymerization was performed at 37 °C in buffer A in the presence of 0.1 mM GTP after addition of 100 µM of test compound or the same volume of vehicle (DMSO). The protein concentration in the sample was 0.2 mg/mL. The polymerization kinetics was monitored on a Victor 3 or EnVision microplate reader (Perkin Elmer, USA) at 355 nm and the stabilized rate of polymerization after the first wave was measured (dA355/dt).

[6] = target: T4, ifenprodil-binding site of NMDA receptor (NR2B subunit) (Rattus norvegicus, UniProt P35439+Q00960); assay: Radioligand binding assay, [3H]ifenprodil displacement
T4 construct: from tissue; host or cells: rat hippocampus membranes
T4 sequence (Q00960 27-1482, other chains not shown): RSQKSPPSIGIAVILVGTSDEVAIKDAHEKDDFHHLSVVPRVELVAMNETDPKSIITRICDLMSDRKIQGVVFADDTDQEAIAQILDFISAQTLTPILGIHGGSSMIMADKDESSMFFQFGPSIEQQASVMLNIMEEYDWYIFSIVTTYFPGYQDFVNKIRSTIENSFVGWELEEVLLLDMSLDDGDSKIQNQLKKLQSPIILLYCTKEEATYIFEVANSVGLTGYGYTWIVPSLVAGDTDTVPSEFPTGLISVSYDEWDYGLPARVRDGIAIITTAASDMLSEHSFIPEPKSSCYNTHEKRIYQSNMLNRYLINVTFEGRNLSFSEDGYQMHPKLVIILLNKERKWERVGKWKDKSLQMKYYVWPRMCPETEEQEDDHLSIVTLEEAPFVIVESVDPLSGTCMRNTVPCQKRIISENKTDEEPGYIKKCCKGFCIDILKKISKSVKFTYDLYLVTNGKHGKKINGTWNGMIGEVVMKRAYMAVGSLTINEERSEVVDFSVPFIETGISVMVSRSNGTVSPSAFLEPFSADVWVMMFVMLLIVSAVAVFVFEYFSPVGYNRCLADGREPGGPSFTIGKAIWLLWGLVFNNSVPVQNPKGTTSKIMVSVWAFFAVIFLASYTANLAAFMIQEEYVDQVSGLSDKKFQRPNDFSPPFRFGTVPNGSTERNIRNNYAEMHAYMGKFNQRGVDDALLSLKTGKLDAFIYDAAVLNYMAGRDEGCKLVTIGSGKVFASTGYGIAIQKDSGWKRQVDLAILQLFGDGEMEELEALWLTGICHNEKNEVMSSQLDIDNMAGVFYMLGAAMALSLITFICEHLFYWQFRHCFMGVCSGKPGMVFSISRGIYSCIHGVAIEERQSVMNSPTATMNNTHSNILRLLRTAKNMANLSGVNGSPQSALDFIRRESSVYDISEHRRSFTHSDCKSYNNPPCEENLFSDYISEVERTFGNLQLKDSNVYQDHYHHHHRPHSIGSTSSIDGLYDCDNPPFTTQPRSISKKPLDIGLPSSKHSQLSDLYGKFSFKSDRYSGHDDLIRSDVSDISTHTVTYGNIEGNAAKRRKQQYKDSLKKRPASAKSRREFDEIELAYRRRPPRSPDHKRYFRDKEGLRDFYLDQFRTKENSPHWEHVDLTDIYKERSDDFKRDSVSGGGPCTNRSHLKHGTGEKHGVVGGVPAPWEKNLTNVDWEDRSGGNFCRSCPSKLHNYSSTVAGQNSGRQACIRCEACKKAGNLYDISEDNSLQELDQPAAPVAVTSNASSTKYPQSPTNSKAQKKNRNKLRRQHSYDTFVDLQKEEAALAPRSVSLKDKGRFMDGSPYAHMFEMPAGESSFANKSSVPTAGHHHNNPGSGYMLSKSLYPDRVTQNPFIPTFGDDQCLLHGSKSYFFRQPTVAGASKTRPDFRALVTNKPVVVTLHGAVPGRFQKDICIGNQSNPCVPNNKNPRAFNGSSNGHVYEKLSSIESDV
Description: (§2) The effect of the test compounds on radioligand binding to NMDA receptors was evaluated by a modified method, as previously reported [83]. The following two radioligands were used: [^3H] […] A hippocampal membrane preparation for the radioligand binding assay was made as described previously [86, 87]. The obtained membrane pellet was resuspended in a working buffer (5 mM HEPES/4.5 mM Tris, pH 7.6 at 4 °C) in a ratio of 1:5 and stored in liquid nitrogen. The reaction mixture (the final volume was 0.5 mL) contained the working buffer (200 μL), a 50 nM radioligand solution (50 μL) and the membrane suspension (250 μL). The nonspecific binding was evaluated in the presence of 1 mM of the unlabeled ligand (50 μL).
(§3) For the binding assay, the reaction mixture was incubated at room temperature for 2 h. After the incubation, the samples were filtered through GF/B glass fiber filters (Whatman), washed with the working buffer, dried and transferred to scintillation vials. Then the scintillation fluid (5 mL), which is composed of diphenyloxazole (PPO) (4 g) and bis(5-phenyl-2-oxazolyl)benzene (POPOP) (0.2 g) in toluene (1 L) were added to the vials.
(§4) The effect of the test compounds on the binding of [^3H] […] The values of Ki were calculated according to a previously described method [88].

[7] = target: T5, MK-801-binding (intrachannel) site of NMDA receptor (Rattus norvegicus, UniProt P35439); assay: Radioligand binding assay, [3H]MK-801 displacement
T5 construct: from tissue; host or cells: rat hippocampus membranes
Description: as §2, §3, §4

[8] = target: T6, PAS of EeAChE (Electrophorus electricus, UniProt O42275); format: binding; settings: 20 µM compound; 7 µM EeAChE, 8 µM propidium iodide; mean ± SEM, n = 3
T6 construct: AChE from Electrophorus electricus (EeAChE, type VI-S, lyophilized powder); purchased Sigma-Aldrich type VI-S; host or cells: Electrophorus electricus tissue
T6 sequence (O42275 24-633): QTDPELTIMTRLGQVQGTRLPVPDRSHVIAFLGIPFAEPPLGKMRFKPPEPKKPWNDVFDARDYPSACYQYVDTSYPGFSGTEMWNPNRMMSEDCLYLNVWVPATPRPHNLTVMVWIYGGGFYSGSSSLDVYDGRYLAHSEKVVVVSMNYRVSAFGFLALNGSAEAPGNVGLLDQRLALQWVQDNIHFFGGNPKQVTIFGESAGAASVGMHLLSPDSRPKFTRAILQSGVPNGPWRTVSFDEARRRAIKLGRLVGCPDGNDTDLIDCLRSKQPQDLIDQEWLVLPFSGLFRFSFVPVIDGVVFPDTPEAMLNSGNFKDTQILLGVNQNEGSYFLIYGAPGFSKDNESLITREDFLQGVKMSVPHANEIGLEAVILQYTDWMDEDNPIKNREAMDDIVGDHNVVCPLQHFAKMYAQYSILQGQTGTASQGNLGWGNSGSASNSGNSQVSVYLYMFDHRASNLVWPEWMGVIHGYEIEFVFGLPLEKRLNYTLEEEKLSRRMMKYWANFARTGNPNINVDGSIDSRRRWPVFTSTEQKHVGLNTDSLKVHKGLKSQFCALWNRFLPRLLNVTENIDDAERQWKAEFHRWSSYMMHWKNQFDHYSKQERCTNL
Description: The compounds were evaluated as potential inhibitors of proaggregation activity of AChE by measuring the displacement of propidium iodide from the PAS of the enzyme [53] using a fluorescence method [28]. AChE from Electrophorus electricus (EeAChE, type VI-S, lyophilized powder, Sigma-Aldrich, St. Louis, MO, USA) was used for consistency with our previous studies [8, 13, 63, 74]. The fluorescence intensity of propidium iodide bound to AChE increases several-fold. A decrease in the fluorescence intensity in the presence of the test compounds is indicative of their ability to bind to the AChE PAS and, correspondingly, to inhibit β-amyloid aggregation.
EeAChE (7 µM) was incubated with 20 µM of the test compound in 1 mM Tris-HCl buffer, pH 8.0, at 25 °C for 15 min. Then a solution of propidium iodide was added (final concentration 8 µM), the mixture was incubated for 15 min, and the fluorescence spectrum was recorded (excitation at 530 nm and emission at 600 nm). […] The blank contained propidium iodide at the same concentration in 1 mM Tris-HCl buffer, pH 8.0 at 25 °C. The measurements were performed in triplicate on a FLUOstar OPTIMA multifunctional microplate reader.
The degree of displacement of propidium iodide from the PAS of AChE (% displacement) was calculated by the equation:% displacement = 100 − (IFAChE + Propidium + inhibitor/IFAChE + Propidium) × 100, where IFAChE + Propidium is the fluorescence intensity of propidium iodide bound to EeAChE in the absence of the test compound (taken as 100%), and IFAChE + Propidium + inhibitor is the fluorescence intensity of propidium iodide bound to EeAChE in the presence of the test compound.

T1 sequence (P22303 32-617 isoform P22303-2 limits assumed): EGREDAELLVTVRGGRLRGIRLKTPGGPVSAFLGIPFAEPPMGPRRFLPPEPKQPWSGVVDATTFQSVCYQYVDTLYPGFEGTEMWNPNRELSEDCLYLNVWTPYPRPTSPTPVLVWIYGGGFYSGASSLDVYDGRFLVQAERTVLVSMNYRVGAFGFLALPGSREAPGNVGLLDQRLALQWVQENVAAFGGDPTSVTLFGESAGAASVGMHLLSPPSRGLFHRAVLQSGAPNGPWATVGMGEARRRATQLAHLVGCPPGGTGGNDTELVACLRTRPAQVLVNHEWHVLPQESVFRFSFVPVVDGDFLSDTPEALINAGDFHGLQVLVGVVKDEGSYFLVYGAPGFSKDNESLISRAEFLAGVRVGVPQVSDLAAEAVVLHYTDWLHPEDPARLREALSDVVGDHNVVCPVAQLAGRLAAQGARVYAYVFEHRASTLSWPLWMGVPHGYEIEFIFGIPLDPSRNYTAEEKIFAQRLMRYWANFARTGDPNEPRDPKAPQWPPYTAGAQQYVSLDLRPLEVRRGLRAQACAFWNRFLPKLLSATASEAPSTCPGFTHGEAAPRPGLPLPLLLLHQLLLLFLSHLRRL

SMILES | inhibition at 20 µM [1] [%] | inhibition at 20 µM [2] [%] | Rate of Ca2+-Induced Mitochondrial Swelling (dA620/dt) [3] [%] | IC50 [4] [µM] | Increase of the rate of Tb+MAP polymerization, factor [5] | Rate of Tb+MAP Polymerization (dA355/dt) [5] [%] | Ki [6] [µM] | Ki [7] [µM] | % of Displacement of Propidium Iodide from the PAS of EeAChE [8] [%] | IC50 [1] [µM] | inhibition at 20 µM ([4]; read-out: % of inhibition of BChE with 20 µM concentration of the compound, 20 µM compound) [%] | IC50 ([2]; 5 min incubation, mean ± SEM, n = 3) [µM]
CN1CCc2c(c3cc(F)ccc3n2CC(=O)NC23CC4CC(C)(CC(C)(C4)C2)C3)C1.Cl [Compound 8c, N-(3,5-Dimethyladamantan-1-yl)-2-(8-fluoro-2-methyl-3,4-dihydro-1H-pyrido[4,3-b]indol-5(2H)-yl)acetamide hydrochloride] | 17.3 ± 0.8 | 8.4 ± 0.9 | 63 ± 25 | 6 ± 0.06 | > 3.5 | 359 ± 25 | 110 ± 10.8 | 80.6 ± 8.5 | – | – | – | –
CN1CCc2c(c3cc(F)ccc3n2CC(=O)NC23CC4CC(CC(C4)C2)C3)C1.Cl [Compound 8f, N-(Adamantan-1-yl)-2-(8-fluoro-2-methyl-3,4-dihydro-1H-pyrido[4,3-b]indol-5(2H)-yl)acetamide hydrochloride] | 22.1 ± 1.8 | 6.2 ± 0.6 | 61 ± 24 | 17.1 ± 1.3 | – | 154 ± 14 | 73.8 ± 7 | 47.3 ± 4.7 | – | – | – | –
CN1CCc2c(c3ccccc3n2CC(=O)NC23CC4CC(CC(C4)C2)C3)C1.Cl [Compound 8d, N-(Adamantan-1-yl)-2-(2-methyl-3,4-dihydro-1H-pyrido[4,3-b]indol-5(2H)-yl)acetamide hydrochloride] | 5.4 ± 1 | 8.8 ± 1.2 | 45 ± 17 | 26.5 ± 0.4 | – | 128 ± 15 | 79.1 ± 7.1 | 49.5 ± 4.5 | 1.4 ± 0.2 | – | – | –
Cc1ccc2c(c1)c1c(n2CCc2ccc(C)nc2)CCN(C)C1 [dimebon, reference compound] | – | – | 36 ± 11 | – | – | 162 ± 23 | 77.2 ± 5.7 | 50.4 ± 4.3 | 4.1 ± 0.3 | – | – | –
Cc1ccc2c(c1)c1c(n2CCNC23CC4CC(C)(CC(C)(C4)C2)C3)CCN(C)C1.Cl.Cl [Compound 4b, N-(2-(2,8-Dimethyl-3,4-dihydro-1H-pyrido[4,3-b]indol-5(2H)-yl)ethyl)-3,5-dimethyladamantane-1-amine dihydrochloride] | – | 10.4 ± 0.5 | 39 ± 7 | 5.07 ± 0.09 | – | 153 ± 33 | 8.8 ± 1 | 7.9 ± 0.8 | 14.7 ± 0.9 | 50.3 ± 3.4 | – | –
Cc1ccc2c(c1)c1c(n2CC(=O)NC23CC4CC(C)(CC(C)(C4)C2)C3)CCN(C)C1.Cl [Compound 8b, 2-(2,8-Dimethyl-3,4-dihydro-1H-pyrido[4,3-b]indol-5(2H)-yl)-N-(3,5-dimethyladamantan-1-yl)acetamide hydrochloride] | 17.7 ± 1.4 | 6.4 ± 0.5 | 87 ± 33 | 33.7 ± 3.5 | – | 314 ± 46 | 89.7 ± 8.7 | 55.1 ± 5.1 | 2.8 ± 0.2 | – | – | –
CN1CCc2c(c3ccccc3n2CC(=O)NC23CC4CC(C)(CC(C)(C4)C2)C3)C1 [Compound 8a, 3,5-Dimethyladamantan-1-yl)-2-(2-methyl-3,4-dihydro-1H-pyrido[4,3-b]indol-5(2H)-yl)acetamide hydrochloride] | 7.1 ± 0.5 | 5.2 ± 1.2 | 42 ± 21 | 9.66 ± 0.52 | – | 237 ± 55 | 113 ± 10.4 | 63.5 ± 5.8 | – | – | – | –
CC12CC3CC(C)(C1)CC(N)(C3)C2 [memantine, reference compound] | 1.3 ± 0.2 | 3 ± 0.4 | 70 ± 9 | – | – | 89 ± 7 | – | – | – | – | 13.7 ± 1.5 | –
CN1CCc2c(c3cc(F)ccc3n2CCNC23CC4CC(CC(C4)C2)C3)C1.Cl.Cl [Compound 4f, N-(2-(8-Fluoro-2-methyl-3,4-dihydro-1H-pyrido[4,3-b]indol-5(2H)-yl)ethyl)adamantane-1-amine dihydrochloride] | – | 8.6 ± 1.7 | 42 ± 8 | 2.53 ± 0.1 | > 3.5 | 356 ± 14 | 5.1 ± 0.5 | 5.4 ± 0.6 | 17.8 ± 1.5 | 13.6 ± 1.3 | – | –
CN1CCc2c(c3ccccc3n2CCNC23CC4CC(C)(CC(C)(C4)C2)C3)C1.Cl.Cl [Compound 4a, 3,5-Dimethyl-N-(2-(2-methyl-3,4-dihydro-1H-pyrido[4,3-b]indol-5(2H)-yl)ethyl)-adamantane-1-amine dihydrochloride] | 19.5 ± 0.3 | 15.6 ± 0.3 | 33 ± 4 | 0.666 ± 0.037 | – | 126 ± 9 | 1.7 ± 0.2 | 1.9 ± 0.2 | 12.5 ± 1.1 | – | – | –
Cc1ccc2c(c1)c1c(n2CC(=O)NC23CC4CC(CC(C4)C2)C3)CCN(C)C1.Cl [Compound 8e, N-(Adamantan-1-yl)-2-(2,8-dimethyl-3,4-dihydro-1H-pyrido[4,3-b]indol-5(2H)-yl)acetamide hydrochloride] | 13.5 ± 0.9 | 9.9 ± 1.5 | 49 ± 12 | 43.2 ± 2.9 | – | 133 ± 28 | 105 ± 10 | 72.7 ± 6.6 | 1.2 ± 0.1 | – | – | –
O=[N+]([O-])c1ccc(OP(=O)(O)Oc2ccc([N+](=O)[O-])cc2)cc1 [BNPP, bis-4-nitrophenyl phosphate, reference compound] | – | – | – | – | – | – | – | – | – | – | – | 1.8 ± 0.11
